Test results from US20220096664A1, “STABILIZED FORMULATIONS CONTAINING IODINATED CONTRAST AGENTS AND CYCLODEXTRINS” (Verrow Pharmaceuticals, Inc., priority 2012, published 2022).

Experiments:
[1] = Photostability: iodide formed after visible light irradiation; assay type: physicochemical; settings: for Iodide formed: 50 mM agent, 10 mM TRIS, pH 7.4, VIS 72 h
Method: (§1) Aqueous solutions comprising iodinated contrast agents were prepared and evaluated in a photolysis chamber as described in the ICH guidance document, Q1B Photostability Testing of New Drug Substances and Products, available from the US Food and Drug Administration, incorporated herein by reference. The solutions were placed in 1 cm×1 cm (3 mL) quartz cuvettes having 2 clear sides and 2 sides etched. Lids were placed on the cuvettes and sealed with a wrap of Parafilm® around the joint. The cuvettes were placed in a photolysis chamber, upright on a flat surface beneath and centered between two horizontal 24 inch fluorescent lamps, (GE, black light F20T12, 20 watt for ultraviolet, or Philips F20T12/CW, 20 watt for visible) placed 6 cm apart. The cuvettes were positioned such that their two clear sides were facing the two lamps.
(§2) Cuvettes were spaced ˜2 cm from each other, and no closer than 15 cm from the ends of the lamps. This positioning allowed reproducible light exposure to all cuvettes.
(§3) The lamps were switched on and the solutions irradiated for 18 to 24 hours for the ultraviolet (UV) lamps or 72 to 90 hours for the visible (VIS) light lamps. At the end of the selected irradiation time, the cuvettes were removed from the photolysis chamber and mixed by inversion 2-times. The caps were then removed and 40 microliter aliquots taken and diluted with 1 mL of an aqueous solution containing ˜0.9 mg/mL sodium thiosulfate. The thiosulfate solution converted any I2, IO3^−, and I3^− present in the solution tor such that total iodine species could be determined in one assay.
(§4) The diluted solutions were assayed by high pressure liquid chromatography (HPLC) using a 4.6×250 mm, C-18, 5 micron particle size, reversed phase column with detection at 280 nm for the contrast agent and 230 nm for the thiosulfate and the iodide ion (r). A mobile phase of 30:70 methanol:aqueous buffer (50 mM KH2PO4+7 mL/L 40% tetrabutyl ammonium hydroxide) at 0.75 mL/min was used for elution. Injection volume was 20 microliters. External standards were prepared containing each contrast agent, potassium iodide, and sodium thiosulfate solution and analyzed along with the irradiated samples. The results were reported as weight percentage iodide formed (mg iodide/mg contrast agent times 100).
(§5) The absorbance readings at 400 nm due to light exposure were plotted against time of exposure and the resulting correlation used to determine the UV and VIS light exposure. A change in absorbance reading of 0.45 was assumed equivalent to 200 watt hours/square meter for the UV light and a change of 0.51 was assumed equivalent to 1.2 million lux hours for the VIS light. The UV lamps provided 6.62 watts/square meter and the VIS lamps provided 7180 lux.
Aqueous solutions were prepared containing 473 mM iohexol (180 mg 1/mL), 10 mM tromethamine HCl buffer (TRIS), with and without various SCDs. The pH of the solutions was adjusted to 7.4 with 0.1N hydrochloric acid. Aliquots of the solutions were irradiated with ultraviolet (UV) light for 18 hours (119 watt hours/m^2) and other aliquots irradiated with visible (VIS) light for 90 hours (0.65 million lux hours). The solutions were then processed, analyzed and reported as in Example 2, with the exception that the iohexol peak was measured at 300 nm for both samples and standards. Results of the study are presented in the table below along with the SCD used. The SCDs included derivatives prepared from alpha, beta, and gamma CD to evaluate the effect of CD cavity size. Various substituents, including one derivative containing more than one type of substituent, and degrees of substitution (DS) were also evaluated.
Aqueous solutions were prepared containing 50 mM iodinated contrast agent, 10 mM tromethamine HCl buffer (TRIS), with and without sulfobutylether beta-cyclodextrin with an average degree of substitution-7 (SBE7-β-CD), or 2-hydroxypropyl beta-cyclodextrin with an average degree of substitution of ˜6.3 (HP6.3-β-CD) or ˜4.3 (HP4.3-β-CD). […]

[2] = Photostability: iodide formed after UV light irradiation; assay type: physicochemical; settings: 18 h, 50 mM
Method: as §1, §2, §3, §4, §5
Aqueous solutions were prepared containing 50 mM contrast agent by diluting commercially available solutions with water. Tromethamine HCl buffer (TRIS), was added to solutions as necessary to increase the TRIS content to that of the commercial product before dilution.
SCD was added to the solutions at various mole ratios and the pH of the solutions adjusted to 7.4 with 0.1N hydrochloric acid or 0.1N sodium hydroxide. The solutions were irradiated with UV light for 18 hours (119 watt hours/m^2) then processed, analyzed and reported as in Example 2. The SCDs evaluated were sulfobutyl ether beta-cyclodextrin with an average degree of substitution of 7 (SBE-704CD), and two 2-hydroxypropyl beta-cyclodextrin derivatives having 6.3 (HP-6.3n/CD) and 4.3 (HP-4.3-βCD) average degrees of substitution.
Aqueous solutions were prepared containing 50 mM contrast agent by diluting commercially available solutions with distilled water. Tromethamine HCl buffer (TRIS), was added to some solutions to increase the buffer content.
The solutions were divided and SBE-7-CD added to one aliquot at a contrast agent:SCD mole ratio of 1:1. The pH of the solutions was adjusted to 5, 6, 7, 7.4 or 8 with 0.1N hydrochloric acid or sodium hydroxide. […]

## O=C(NCC(O)CO)c1c(I)c(C(=O)NCC(O)CO)c(I)c(N(CCO)C(=O)CO)c1I (stereo not shown) [Ioversol, ioversol]
[1]; agent:SBE7-β-CD 1:0.1
  Iodide formed: 0.301 wt %
[1]; no SCD (1:0)
  Iodide formed: 0.304 wt %
[1]; 72 h, 50 mM, pH 7.4
  percent change in iodide degradants formed in the presence of the SCD: (−1%)
[2]; pH 5
  % Change in iodide degradants formed in the presence of the SCD: −43.6%
[2]; pH 7.4
  % Change in iodide degradants formed in the presence of the SCD: −58.5%
[2]; pH 8
  % Change in iodide degradants formed in the presence of the SCD: −47%

## COCC(=O)Nc1c(I)c(C(=O)NCC(O)CO)c(I)c(C(=O)N(C)CC(O)CO)c1I (stereo not shown) [Iopromide, iopromide]
[1]; agent:SBE7-β-CD 1:0.1
  Iodide formed: 0.269 wt %
[1]; no SCD (1:0)
  Iodide formed: 0.311 wt %

## CC(=O)N(CC(O)CN(C(C)=O)c1c(I)c(C(=O)NCC(O)CO)c(I)c(C(=O)NCC(O)CO)c1I)c1c(I)c(C(=O)NCC(O)CO)c(I)c(C(=O)NCC(O)CO)c1I (stereo not shown) [Iodixanol, iodixanol]
[1]; agent:SBE7-β-CD 1:0.1
  Iodide formed: 0.142 wt %
[1]; no SCD (1:0)
  Iodide formed: 0.153 wt %
